How the values were obtained:
[1] = tested on: ENR+CD organoids (ISC to Paneth cell differentiation); assay: Primary screen: basal (non-stimulated) lysozyme secretion LYZ.NS, 2.5-D 384-well ENR+CD organoid differentiation; format: cell-based, mouse; details: primary screen; for Z.LYZ.NS: standard z score
Description: (§1) High-throughput screening.

[2] = tested on: ENR+CD organoids (ISC to Paneth cell differentiation); assay: Primary screen: CCh-stimulated lysozyme secretion LYZ.S, 2.5-D 384-well ENR+CD organoid differentiation; format: cell-based, mouse; details: primary screen
Description: as §1

ENR+CD organoids = assay: Primary screen: ATP (CellTiter-Glo 3D, CTG) cell number/viability, 2.5-D 384-well ENR+CD organoids; details: primary screen;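 also: compounds given at plating and again on day 3 over a 6-day differentiation from ENR+CV stem-cell-enriched precursors, ATP measured on day 6, plate median as control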
[3] = 1st dose row of the treatment (0.08 uM by row order; dose not reprinted)
[4] = 2nd dose row of the treatment (0.40 uM by row order; dose not reprinted)
[5] = 3rd dose row of the treatment (2.00 uM by row order; dose not reprinted)
[6] = 4th dose row of the treatment (10.00 uM by row order; dose not reprinted)
[7] = dose 0.08 uM, FC relative to plate median
[8] = dose 0.40 uM, FC relative to plate median
[9] = dose 2.00 uM, FC relative to plate median
[10] = dose 10.00 uM, FC relative to plate median

In the case of (−)-MK 801 Maleate, the “SSMD.LYZ.NS_Rep (strictly standardized mean difference)” value [1, 3] is reported as 0.070, the “SSMD.LYZ.NS_Rep (strictly standardized mean difference)” value [1, 4] is reported as −0.550 and the “SSMD.LYZ.NS_Rep (strictly standardized mean difference)” value [1, 5] is reported as −1.315. The “SSMD.LYZ.NS_Rep (strictly standardized mean difference)” value [1, 6] was −1.708, the Dose.FC.LYZ.NS ([1]; dose 0.08 uM) was 0.008 log2 fold change and the “Z.LYZ.NS (standard z score)” value ([1]; dose 0.08 uM) was 0.072. For the same molecule, the Dose.FC.LYZ.NS ([1]; dose 0.40 uM) was −0.099 log2 fold change, the “Z.LYZ.NS (standard z score)” value ([1]; dose 0.40 uM) was −0.864 and the Dose.FC.LYZ.NS ([1]; dose 2.00 uM) was −0.256 log2 fold change. The “Z.LYZ.NS (standard z score)” value ([1]; dose 2.00 uM) was −2.227, the Dose.FC.LYZ.NS ([1]; dose 10.00 uM) was −0.259 log2 fold change and the “Z.LYZ.NS (standard z score)” value ([1]; dose 10.00 uM) was −2.255. For the same molecule, the “SSMD.LYZ.S_Rep (strictly standardized mean difference)” value [2, 3] was 0.116, the “Z.LYZ.S (standard z score)” value [2, 3] was 0.099 and the “SSMD.LYZ.S_Rep (strictly standardized mean difference)” value [2, 4] was −0.976. For the same molecule, the “Z.LYZ.S (standard z score)” value [2, 4] was −1.159, the “SSMD.LYZ.S_Rep (strictly standardized mean difference)” value [2, 5] was −1.187 and the “Z.LYZ.S (standard z score)” value [2, 5] was −2.160. For the same molecule, the “SSMD.LYZ.S_Rep (strictly standardized mean difference)” value [2, 6] was −1.768, the “Z.LYZ.S (standard z score)” value [2, 6] was −2.604 and the Dose.FC.LYZ.S ([2]; dose 0.08 uM) was 0.015 log2 fold change. It also gave a Dose.FC.LYZ.S ([2]; dose 0.40 uM) of −0.179 log2 fold change, a Dose.FC.LYZ.S ([2]; dose 2.00 uM) of −0.334 log2 fold change and a Dose.FC.LYZ.S ([2]; dose 10.00 uM) of −0.403 log2 fold change. The “SSMD.CTG.Rep (strictly standardized mean difference)” value (ENR+CD organoids; [3]) was 0.442, the “SSMD.CTG.Rep (strictly standardized mean difference)” value (ENR+CD organoids; [4]) was −1.342 and the “SSMD.CTG.Rep (strictly standardized mean difference)” value (ENR+CD organoids; [5]) was −1.102. The “SSMD.CTG.Rep (strictly standardized mean difference)” value (ENR+CD organoids; [6]) was −1.696, the Dose.FC.CTG (ENR+CD organoids; dose 0.08 uM) was 0.127 log2 fold change and the “Z.CTG (standard z score)” value (ENR+CD organoids; dose 0.08 uM) was 0.303. The Dose.FC.CTG (ENR+CD organoids; dose 0.40 uM) was −0.377 log2 fold change, the “Z.CTG (standard z score)” value (ENR+CD organoids; dose 0.40 uM) was −0.899 and the Dose.FC.CTG (ENR+CD organoids; dose 2.00 uM) was −0.702 log2 fold change. The “Z.CTG (standard z score)” value (ENR+CD organoids; dose 2.00 uM) was −1.677, the Dose.FC.CTG (ENR+CD organoids; dose 10.00 uM) was −0.936 log2 fold change and the “Z.CTG (standard z score)” value (ENR+CD organoids; dose 10.00 uM) was −2.236.

`Cc1c(C(=O)NN2CCCCC2)nn(-c2ccc(Cl)cc2Cl)c1-c1ccc(Cl)cc1` [Rimonabant] was tested, and the Dose.FC.LYZ.NS [1, 7] was 0.108 log2 fold change, the Z.LYZ.NS ([1]; dose 0.08 uM) was 0.936 and the Dose.FC.LYZ.NS [1, 8] was −0.063 log2 fold change. It also gave a Z.LYZ.NS ([1]; dose 0.40 uM) of −0.545, a Dose.FC.LYZ.NS [1, 9] of −0.054 log2 fold change and a Z.LYZ.NS ([1]; dose 2.00 uM) of −0.467. It also gave a Dose.FC.LYZ.NS [1, 10] of −0.044 log2 fold change, a Z.LYZ.NS ([1]; dose 10.00 uM) of −0.385 and a Dose.FC.LYZ.S [2, 7] of 0.089 log2 fold change. For the same molecule, the Dose.FC.LYZ.S [2, 8] was −0.003 log2 fold change, the Dose.FC.LYZ.S [2, 9] was −0.053 log2 fold change and the Dose.FC.LYZ.S [2, 10] was −0.098 log2 fold change. It also gave a Dose.FC.CTG (ENR+CD organoids; [7]) of 0.256 log2 fold change, a Dose.FC.CTG (ENR+CD organoids; [8]) of 0.206 log2 fold change and a Dose.FC.CTG (ENR+CD organoids; [9]) of 0.235 log2 fold change. It also gave a Dose.FC.CTG (ENR+CD organoids; [10]) of 0.063 log2 fold change.

With `CC(C)(C)c1cc(C(C)(C)C)c(NC(=O)c2c[nH]c3ccccc3c2=O)cc1O` [Ivacaftor (VX-770)] the “Dose.FC.LYZ.NS (log2 fold change)” value ([1]; dose 0.08 uM) was 0.099, the “Z.LYZ.NS (standard z score)” value ([1]; dose 0.08 uM) was 0.864 and the “Dose.FC.LYZ.NS (log2 fold change)” value ([1]; dose 0.40 uM) was 0.127. For the same molecule, the “Z.LYZ.NS (standard z score)” value ([1]; dose 0.40 uM) was 1.109, the “Dose.FC.LYZ.NS (log2 fold change)” value ([1]; dose 2.00 uM) was 0.082 and the “Z.LYZ.NS (standard z score)” value ([1]; dose 2.00 uM) was 0.717. The “Dose.FC.LYZ.NS (log2 fold change)” value ([1]; dose 10.00 uM) was −0.142, the “Z.LYZ.NS (standard z score)” value ([1]; dose 10.00 uM) was −1.240 and the “Dose.FC.LYZ.S (log2 fold change)” value ([2]; dose 0.08 uM) was 0.132. For the same molecule, the “Dose.FC.LYZ.S (log2 fold change)” value ([2]; dose 0.40 uM) was 0.189, the “Dose.FC.LYZ.S (log2 fold change)” value ([2]; dose 2.00 uM) was 0.019 and the “Dose.FC.LYZ.S (log2 fold change)” value ([2]; dose 10.00 uM) was −0.253. For the same molecule, the “Dose.FC.CTG (log2 fold change)” value (ENR+CD organoids; dose 0.08 uM) was 0.234, the “Z.CTG (standard z score)” value (ENR+CD organoids; dose 0.08 uM) was 0.558 and the “Dose.FC.CTG (log2 fold change)” value (ENR+CD organoids; dose 0.40 uM) was 0.145. The “Z.CTG (standard z score)” value (ENR+CD organoids; dose 0.40 uM) was 0.347, the “Dose.FC.CTG (log2 fold change)” value (ENR+CD organoids; dose 2.00 uM) was −0.148 and the “Z.CTG (standard z score)” value (ENR+CD organoids; dose 2.00 uM) was −0.354. The “Dose.FC.CTG (log2 fold change)” value (ENR+CD organoids; dose 10.00 uM) was −0.470 and the “Z.CTG (standard z score)” value (ENR+CD organoids; dose 10.00 uM) was −1.123.

`CN1CC(=O)N2[C@H](c3ccc4c(c3)OCO4)c3[nH]c4ccccc4c3C[C@@H]2C1=O` [Tadalafil] gave a Dose.FC.LYZ.NS [1, 7] of 0.102 log2 fold change, a Z.LYZ.NS ([1]; dose 0.08 uM) of 0.887 and a Dose.FC.LYZ.NS [1, 8] of 0.027 log2 fold change. The Z.LYZ.NS ([1]; dose 0.40 uM) was 0.233, the Dose.FC.LYZ.NS [1, 9] was 0.130 log2 fold change and the Z.LYZ.NS ([1]; dose 2.00 uM) was 1.128. It also gave a Dose.FC.LYZ.NS [1, 10] of 0.061 log2 fold change, a Z.LYZ.NS ([1]; dose 10.00 uM) of 0.534 and a Dose.FC.LYZ.S [2, 7] of 0.091 log2 fold change. It also gave a Dose.FC.LYZ.S [2, 8] of 0.095 log2 fold change, a Dose.FC.LYZ.S [2, 9] of 0.223 log2 fold change and a Dose.FC.LYZ.S [2, 10] of 0.148 log2 fold change. The Dose.FC.CTG (ENR+CD organoids; [7]) was −0.019 log2 fold change, the Dose.FC.CTG (ENR+CD organoids; [8]) was 0.361 log2 fold change and the Dose.FC.CTG (ENR+CD organoids; [9]) was 0.436 log2 fold change. It also gave a Dose.FC.CTG (ENR+CD organoids; [10]) of 0.270 log2 fold change.

`Cn1cc(/C=C2\C(=O)Nc3cccnc32)c2ccccc21` [GW441756] was tested, and the “Dose.FC.LYZ.NS (log2 fold change)” value ([1]; dose 0.08 uM) was 0.046, the “Z.LYZ.NS (standard z score)” value ([1]; dose 0.08 uM) was 0.399 and the “Dose.FC.LYZ.NS (log2 fold change)” value ([1]; dose 0.40 uM) was 0.061. For the same molecule, the “Z.LYZ.NS (standard z score)” value ([1]; dose 0.40 uM) was 0.529, the “Dose.FC.LYZ.NS (log2 fold change)” value ([1]; dose 2.00 uM) was 0.117 and the “Z.LYZ.NS (standard z score)” value ([1]; dose 2.00 uM) was 1.023. The “Dose.FC.LYZ.NS (log2 fold change)” value ([1]; dose 10.00 uM) was 0.088, the “Z.LYZ.NS (standard z score)” value ([1]; dose 10.00 uM) was 0.763 and the “Dose.FC.LYZ.S (log2 fold change)” value ([2]; dose 0.08 uM) was 0.075. For the same molecule, the “Dose.FC.LYZ.S (log2 fold change)” value ([2]; dose 0.40 uM) was 0.196, the “Dose.FC.LYZ.S (log2 fold change)” value ([2]; dose 2.00 uM) was 0.125 and the “Dose.FC.LYZ.S (log2 fold change)” value ([2]; dose 10.00 uM) was 0.071. The “Dose.FC.CTG (log2 fold change)” value (ENR+CD organoids; dose 0.08 uM) was 0.048, the “Z.CTG (standard z score)” value (ENR+CD organoids; dose 0.08 uM) was 0.114 and the “Dose.FC.CTG (log2 fold change)” value (ENR+CD organoids; dose 0.40 uM) was −0.105. The “Z.CTG (standard z score)” value (ENR+CD organoids; dose 0.40 uM) was −0.252, the “Dose.FC.CTG (log2 fold change)” value (ENR+CD organoids; dose 2.00 uM) was 0.152 and the “Z.CTG (standard z score)” value (ENR+CD organoids; dose 2.00 uM) was 0.364. The “Dose.FC.CTG (log2 fold change)” value (ENR+CD organoids; dose 10.00 uM) was −0.113 and the “Z.CTG (standard z score)” value (ENR+CD organoids; dose 10.00 uM) was −0.270.

From patent publication US20220323406A1, “METHODS AND COMPOSITIONS FOR DIFFERENTIATING STEM CELLS” (Massachusetts Institute of Technology, priority 2019, published 2022)
